Experimental data taken from patent publication US20060148735A1, “Methods for treating, preventing, or reducing cardiac disorders using fadd inhibitors” (priority 2002, published 2006).
Entries after “also recorded” stand apart in the source; their conditions may differ. Where a SMILES comes first, the peptide text is derived from it. The star is where a group is joined. Cbz = O=C(OCc1ccccc1)*; CH2F = FC*

Assays:
caspase-9 = assay: Caspase-9 activity (colorimetric assay) in cardiomyocytes; assay type: cell-based, rat; details: pretreatment or over-expression
Protocol: (§1) Cardiomyocytes (CM) were prepared from 1-2 day-old rats as described by Matsui et al. (Circulation 100:2373-9, 1999). All CM were incubated in RPMI-1640 containing 5% FBS and 10% horse serum. Neonatal CM grown in 60 mm dishes were infected with Ad.EGFP.β-gal (MOI 20), Ad.FADD-wt, or Ad.FADD-dn (MOI 20), for 24 hours prior to exposure to transient hypoxic conditions, lasting up to 24 hours. To expose CM to transient hypoxia conditions, CM media is changed to N2/CO2-saturated serum-free F10 and cells are placed in an airtight N2-saturated container at 37° C. for up to 24 hours. Hypoxia was confirmed by oxymetry measurements. To examine the role of FADD in inflammatory signaling, cultured neonatal rat CM were stimulated with TNF-α (50 ng/ml) for 4 hours. Nuclear and cytoplasmic extracts were prepared.
(§2) Optionally, apoptosis may also be measured by the protein or gene expression, or alternatively, by the activity of surrogate markers of apoptosis including, for example, caspase activity. Caspase-3, -8, and -9 activity may be examined by using the caspase colorimetric assay kit from R&D Systems according to the manufacturer's protocol. Briefly, cells are scraped, collected, washed with cold PBS, and lysed in cold lysis buffer. […] Release of the pNA cleavage product is quantitated in a microplate reader (Bio-Rad) at a wavelength of 405 nm.

caspase-8 = assay: Caspase-8 activity (colorimetric assay) in cardiomyocytes; assay type: cell-based, rat; details: listed as zIETD-fink
Protocol: as §1, §2

NF-κB = assay: TNF-α-induced NF-κB activation in neonatal rat cardiomyocytes (p65 translocation, IκB-α phosphorylation, EMSA); assay type: cell-based; details: 50 μM
Protocol: as §1, with “prepared. […]” for “prepared.”
Cells were harvested and nuclear extracts prepared as above. […] Nuclear proteins and oligonucleotide were then separated with native PAGE and detected by autoradiography.
Proteins were separated by SDS-PAGE performed under reducing conditions on 7.5%, 10%, and 12% separation gels with a 4% stacking gel. […] After washing, membranes were incubated with horseradish peroxidase-conjugated secondary antibody and immunoreactive bands detected by chemiluminescence.

[1] = system: rat neonatal cardiomyocytes; assay: Hypoxia/serum-deprivation-induced cardiomyocyte apoptosis (cell death ELISA, DNA laddering); assay type: cell-based
Protocol: as §1
For determination of DNA laddering, cellular DNA is extracted with phenol:chloroform, treated with RNase, ^32P-labeled, and then visualized by electrophoresis in 1.8% agarose gel.
Histone-associated DNA fragments were quantified by cell death ELISA as described in the manufacturer's protocol. DNA fragmentation data were corrected for background and normalized to the result with normoxic cardiomyocytes.

CC[C@H](C)[C@H](NC(=O)OCc1ccccc1)C(=O)N[C@@H](CCC(=O)OC)C(=O)N[C@H](C(=O)N[C@@H](CC(=O)OC)C(=O)CF)[C@@H](C)O [zIETD-fmk] (Cbz-IE(OMe)TD(OMe)-CH2F)
hypoxia/SD-induced activation of caspase-9 (caspase-9): completely inhibited | hypoxia/SD-induced caspase-8 activation (caspase-8): completely inhibited; also recorded: effectively blocked | reversal of the FADD effect on NF-κB (NF-κB): failed to reverse | CM apoptosis in response to hypoxia/SD ([1]; 4 h hypoxia/SD): completely inhibited

COC(=O)C[C@H](NC(=O)[C@H](C)NC(=O)[C@@H](NC(=O)OCc1ccccc1)C(C)C)C(=O)CF [zVAD-fmk] (Cbz-Val-Ala-Asp(OMe)-CH2F)
hypoxia/SD-induced apoptosis (ELISA for histone-associated DNA fragmentation, DNA laddering) ([1]; concentrations ranging from 50 to 100 μM): inhibited
